Assay results published in patent publication US7601716B2, “Pyridopyrazines and derivatives thereof as ALK and c-Met inhibitors” (Cephalon, Inc., priority 2006, dated 2009).

Assays:
[1] = biological target: T1, c-Met (cytoplasmic domain) (Homo sapiens, UniProt P08581); test: c-Met Kinase Assay (ELISA/TRF, PLC-γ substrate); assay type: biochemical; details: 3 μM ATP (Km level); read-out: c-Met Kinase Inhibition (IC50)
T1 construct: Reactions were initiated with 30 ng/mL c-Met (cytoplasmic domain, Invitrogen Corporation #PV3143); purchased Invitrogen Corporation PV3143
T1 sequence (P08581 956-1390 limits assumed): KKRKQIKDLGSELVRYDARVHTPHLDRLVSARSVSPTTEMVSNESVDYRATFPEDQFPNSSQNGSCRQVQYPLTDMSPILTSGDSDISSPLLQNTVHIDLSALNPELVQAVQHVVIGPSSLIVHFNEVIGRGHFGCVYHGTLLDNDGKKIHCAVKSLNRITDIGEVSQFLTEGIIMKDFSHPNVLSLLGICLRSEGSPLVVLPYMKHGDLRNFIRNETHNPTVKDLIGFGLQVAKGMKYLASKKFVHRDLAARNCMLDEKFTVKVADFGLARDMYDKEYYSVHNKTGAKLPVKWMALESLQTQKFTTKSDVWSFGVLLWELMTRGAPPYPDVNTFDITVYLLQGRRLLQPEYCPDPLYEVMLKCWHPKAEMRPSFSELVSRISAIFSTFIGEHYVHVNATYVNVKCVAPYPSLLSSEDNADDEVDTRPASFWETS
Outline: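 c-Met cytoplasmic domain (30 ng/mL) phosphorylates plate-coated GST–PLC-γ for 15 min at 37 °C. Phosphotyrosine detected with Eu-labeled PT66 antibody by time-resolved fluorescence. IC50 from variable-slope sigmoidal fit of % inhibition vs log concentration.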

[2] = biological target: baculovirus-expressed ALK (Homo sapiens, UniProt Q9UM73); test: ALK Kinase Assay (ELISA/TRF, PLC-γ substrate); assay type: biochemical; details: read-out: ALK Kinase Inhibition (IC50); further: 1 µM ATP (Km level)
Sequence of baculovirus-expressed ALK (Q9UM73 19-1620): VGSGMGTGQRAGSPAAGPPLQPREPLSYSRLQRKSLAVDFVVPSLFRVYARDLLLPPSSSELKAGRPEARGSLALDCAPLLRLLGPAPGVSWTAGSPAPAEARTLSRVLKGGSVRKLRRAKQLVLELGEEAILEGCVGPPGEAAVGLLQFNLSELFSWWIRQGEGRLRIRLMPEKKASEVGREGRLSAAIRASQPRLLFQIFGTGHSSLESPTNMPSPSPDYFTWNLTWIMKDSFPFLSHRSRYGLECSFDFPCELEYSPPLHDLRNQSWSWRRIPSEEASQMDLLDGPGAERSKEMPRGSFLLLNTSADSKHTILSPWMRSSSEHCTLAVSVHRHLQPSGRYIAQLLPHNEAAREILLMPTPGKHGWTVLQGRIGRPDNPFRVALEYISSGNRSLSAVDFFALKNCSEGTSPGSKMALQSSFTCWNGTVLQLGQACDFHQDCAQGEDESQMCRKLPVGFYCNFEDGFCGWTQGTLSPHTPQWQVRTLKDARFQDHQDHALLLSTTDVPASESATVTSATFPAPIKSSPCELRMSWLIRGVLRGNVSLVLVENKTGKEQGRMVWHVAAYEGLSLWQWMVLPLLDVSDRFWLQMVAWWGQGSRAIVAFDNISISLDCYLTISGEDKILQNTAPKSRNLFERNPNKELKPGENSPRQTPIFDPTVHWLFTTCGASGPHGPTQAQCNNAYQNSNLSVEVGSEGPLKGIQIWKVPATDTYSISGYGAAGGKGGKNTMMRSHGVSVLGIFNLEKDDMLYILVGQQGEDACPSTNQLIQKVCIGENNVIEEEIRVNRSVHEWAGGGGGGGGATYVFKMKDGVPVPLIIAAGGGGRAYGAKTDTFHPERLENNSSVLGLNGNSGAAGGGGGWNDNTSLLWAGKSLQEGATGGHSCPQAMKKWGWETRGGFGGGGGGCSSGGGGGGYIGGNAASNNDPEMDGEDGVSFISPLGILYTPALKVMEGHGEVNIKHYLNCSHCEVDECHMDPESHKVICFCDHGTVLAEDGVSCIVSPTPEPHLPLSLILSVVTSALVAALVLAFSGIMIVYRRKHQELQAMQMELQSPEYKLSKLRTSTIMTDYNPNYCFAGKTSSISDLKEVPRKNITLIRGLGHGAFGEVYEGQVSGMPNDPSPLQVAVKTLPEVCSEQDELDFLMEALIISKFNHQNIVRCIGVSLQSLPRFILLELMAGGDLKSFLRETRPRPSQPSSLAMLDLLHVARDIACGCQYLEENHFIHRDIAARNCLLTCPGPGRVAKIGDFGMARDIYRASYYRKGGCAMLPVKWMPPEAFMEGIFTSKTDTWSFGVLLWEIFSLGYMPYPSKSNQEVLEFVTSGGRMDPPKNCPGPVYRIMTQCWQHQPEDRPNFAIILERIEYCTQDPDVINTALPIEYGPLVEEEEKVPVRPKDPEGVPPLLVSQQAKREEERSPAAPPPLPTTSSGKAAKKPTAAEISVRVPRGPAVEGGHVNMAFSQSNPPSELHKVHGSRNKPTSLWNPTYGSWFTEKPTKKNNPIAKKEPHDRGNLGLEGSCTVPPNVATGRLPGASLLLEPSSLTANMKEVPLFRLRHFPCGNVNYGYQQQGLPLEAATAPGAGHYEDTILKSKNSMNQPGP
Outline: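 An ELISA adapted from a trkA format was used: wells carried GST-fused PLC-γ substrate, and enzyme addition (30 ng/ml ALK) started a 15-minute reaction at 37° C.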

[3] = biological target: T2, c-Met (phospho-c-Met) in HT29 cells (Homo sapiens, UniProt P08581); test: c-Met Cellular Activity/Autophosphorylation Assay, HT29 cells; assay type: cell-based; details: for inhibition at 1 µM: HT-29, 1 μM compound, read-out: c-Met autophosphorylation inhibition score, HT29 Cells (1 μM); for inhibition at 3 µM: HT-29, 3 μM compound, read-out: c-Met autophosphorylation inhibition score, HT29 Cells (3 μM)
T2 construct: endogenous in cells; host or cells: HT29, A549 (HGF-stimulated), GTL-16
T2 sequence (P08581 25-1390): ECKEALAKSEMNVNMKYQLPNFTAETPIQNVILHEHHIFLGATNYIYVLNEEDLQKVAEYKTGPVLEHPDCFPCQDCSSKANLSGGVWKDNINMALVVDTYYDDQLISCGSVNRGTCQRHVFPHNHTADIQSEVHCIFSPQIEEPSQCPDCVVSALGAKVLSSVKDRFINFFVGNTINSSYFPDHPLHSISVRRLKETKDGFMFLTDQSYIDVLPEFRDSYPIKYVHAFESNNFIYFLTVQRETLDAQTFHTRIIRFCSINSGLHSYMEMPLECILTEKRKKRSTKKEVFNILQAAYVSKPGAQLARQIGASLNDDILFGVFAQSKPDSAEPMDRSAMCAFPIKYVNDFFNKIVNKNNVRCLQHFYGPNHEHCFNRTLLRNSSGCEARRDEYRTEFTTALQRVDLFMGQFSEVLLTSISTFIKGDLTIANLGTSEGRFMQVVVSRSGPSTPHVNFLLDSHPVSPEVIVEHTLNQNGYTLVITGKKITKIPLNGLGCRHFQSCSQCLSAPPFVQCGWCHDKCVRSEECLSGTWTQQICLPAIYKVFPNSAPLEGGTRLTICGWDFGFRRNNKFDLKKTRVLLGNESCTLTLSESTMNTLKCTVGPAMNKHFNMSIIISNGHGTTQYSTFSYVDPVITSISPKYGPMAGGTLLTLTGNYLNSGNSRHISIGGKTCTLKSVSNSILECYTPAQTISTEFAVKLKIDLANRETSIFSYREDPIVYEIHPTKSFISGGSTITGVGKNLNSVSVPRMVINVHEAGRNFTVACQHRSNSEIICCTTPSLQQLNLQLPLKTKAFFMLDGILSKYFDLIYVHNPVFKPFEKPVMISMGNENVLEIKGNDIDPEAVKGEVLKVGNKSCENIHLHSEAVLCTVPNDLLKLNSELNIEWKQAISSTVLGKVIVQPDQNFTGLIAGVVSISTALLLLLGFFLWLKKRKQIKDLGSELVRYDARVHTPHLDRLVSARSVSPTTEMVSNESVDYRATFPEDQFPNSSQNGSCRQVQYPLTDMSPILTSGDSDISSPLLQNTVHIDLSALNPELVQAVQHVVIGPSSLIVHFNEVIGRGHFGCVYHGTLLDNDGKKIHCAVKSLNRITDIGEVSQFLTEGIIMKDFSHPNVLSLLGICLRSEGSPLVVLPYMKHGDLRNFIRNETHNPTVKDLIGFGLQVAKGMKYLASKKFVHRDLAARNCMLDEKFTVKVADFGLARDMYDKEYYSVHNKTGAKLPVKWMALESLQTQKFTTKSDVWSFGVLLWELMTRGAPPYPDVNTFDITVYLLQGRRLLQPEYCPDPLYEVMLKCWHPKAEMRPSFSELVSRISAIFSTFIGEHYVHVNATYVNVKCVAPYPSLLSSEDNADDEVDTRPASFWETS
Method: (§1) HT29 and GTL-16 cells were serum starved for one hour in media containing 0.05% BSA and varying concentrations of Example compounds (1-10 μM). A549 cells were serum starved overnight in media containing 0.05% BSA then treated for one hour with Example compounds followed by a 15 minute stimulation with 50 ng/mL HGF (Peprotech, Rocky Hill, N.J.), respectively. Samples were resolved by electrophoresis on a 3-8% Tris-Acetate gel (40 ma/gel) and then transferred to a nitrocellulose membrane. Membranes were blocked for one hour at room temperature in Odyssey Blocking Buffer (Licor #927-40000) diluted 1:1 with 1×TBS. Membranes were then co-incubated overnight at 4° C. with primary antibodies [total Met (Cell Signaling, #3127) and Phospho-Met (Biosource, #44-888G) 1:1000 each in Odyssey Blocking Buffer diluted 1:1 with 1×TBS-T 0.05%]. The next day, membranes were washed and co-incubated with secondary antibodies [Goat anti mouse IRDye800 (Rockland, #610-132-121) and Goat anti rabbit Alexa fluor 700 (Molecular Probes, #A21038) 1:10,000] in Odyssey Blocking Buffer diluted 1:1 with 1×TBS-T 0.05% for one hour at room temperature protected from light. Blots were then washed and read on the Odyssey Infrared Imager. Total c-Met signal was visualized at 800 nm detection and phospho-c-Met signal was visualized at 700 nm detection.

[4] = biological target: T3, c-Met (phospho-c-Met) in A549 cells (Homo sapiens, UniProt P08581); test: c-Met Cellular Activity/Autophosphorylation Assay, A549 cells (HGF stimulated); assay type: cell-based; details: 50 ng/mL HGF; for inhibition at 1 µM: 1 μM compound, read-out: c-Met autophosphorylation inhibition score, A549 Cells (1 μM); for inhibition at 3 µM: 3 μM compound, read-out: c-Met autophosphorylation inhibition score, A549 Cells (3 μM)
T3 construct: endogenous in cells; host or cells: HT29, A549 (HGF-stimulated), GTL-16
T3 sequence (P08581 25-1390): as above
Method: as §1

Compound	IC50 [1] [nM]	IC50 [2] [nM]	inhibition at 1 µM [3] [%]	inhibition at 3 µM [3] [%]	inhibition at 1 µM [4] [%]	inhibition at 3 µM [4] [%]	melting point
O=C(O)c1ccc(-c2cnc3c(c2)N(Cc2cc(F)ccc2F)CCN3)cn1 [Example 72, 5-[1-(2,5-Difluorobenzyl)-1,2,3,4-tetrahydropyrido[2,3-b]pyrazin-7-yl]-pyridine-2-carboxylic acid]	1000 to 10000	100 to 1000	26 to 50	26 to 50	0 to 25	0 to 25	240 °C (dec.)
O=C(c1ccc(-c2cnc3c(c2)N(Cc2cc(F)ccc2F)CCN3)cn1)N1CCOCC1 [Example 76, {5-[1-(2,5-Difluorobenzyl)-1,2,3,4-tetrahydropyrido[2,3-b]pyrazin-7-yl]-pyridin-2-yl}morpholin-4-yl-methanone]	1000 to 10000	100 to 1000	0 to 25	26 to 50	0 to 25	0 to 25	111 to 113 °C
Fc1ccc(F)c(CN2CCNc3ncc(-c4ccnc(N5CCOCC5)c4F)cc32)c1Cl [Example 102, 1-(2-Chloro-3,6-difluorobenzyl)-7-(3-fluoro-2-morpholin-4-yl-pyridin-4-yl)-1,2,3,4-tetrahydropyrido[2,3-b]pyrazine]	1000 to 10000	100 to 1000	26 to 50	51 to 75	0 to 25	26 to 50	
CN1CCN(C(=O)c2ccc(-c3cnc4c(c3)N(Cc3c(F)ccc(F)c3Cl)CCN4)cc2)CC1 [Example 104, {4-[1-(2-Chloro-3,6-difluorobenzyl)-1,2,3,4-tetrahydropyrido[2,3-b]pyrazin-7-yl]phenyl}-(4-methylpiperazin-1-yl)methanone]	100 to 1000	< 100	0 to 25	51 to 75			
CN1CCN(c2ccc(-c3cnc4c(c3)N(Cc3cc(Cl)ccc3C(F)(F)F)CCN4)cn2)CC1 [Example 118, 1-(5-Chloro-2-trifluoromethylbenzyl)-7-[6-(4-methylpiperazin-1-yl)pyridin-3-yl]-1,2,3,4-tetrahydropyrido[2,3-b]pyrazine]			26 to 50	51 to 75	0 to 25	26 to 50	
CN1CCN(c2ccc(-c3cnc4c(c3)N(Cc3cc(C(F)(F)F)ccc3Cl)CCN4)cn2)CC1 [Example 120, 1-(2-Chloro-5-trifluoromethylbenzyl)-7-[6-(4-methylpiperazin-1-yl)pyridin-3-yl]-1,2,3,4-tetrahydropyrido[2,3-b]pyrazine]	1000 to 10000	100 to 1000	26 to 50	26 to 50	0 to 25	26 to 50	
CN1CCN(c2ccc(-c3cnc4c(c3)N(S(=O)(=O)c3cc(F)ccc3F)CCN4)cn2)CC1 [Example 122, 1-(2,5-Difluorobenzenesulfonyl)-7-[6-(4-methylpiperazin-1-yl)pyridin-3-yl]-1,2,3,4-tetrahydropyrido[2,3-b]pyrazine]	1000 to 10000	100 to 1000	26 to 50	26 to 50	0 to 25	26 to 50	
CC(C)(C)OC(=O)NCC#Cc1cnc2c(c1)N(Cc1cc(Cl)ccc1Cl)CCN2 [Example 168, {3-[1-(2,5-Dichlorobenzyl)-1,2,3,4-tetrahydropyrido[2,3-b]pyrazin-7-yl]prop-2-ynyl}carbamic acid tert-butyl ester]	10000 to 100000	1000 to 10000	0 to 25	26 to 50	0 to 25	0 to 25	
Nc1ccc(-c2cnc3c(c2)N(Cc2c(F)ccc(F)c2Cl)CCN3)cn1 [Example 184, 5-[1-(2-Chloro-3,6-difluorobenzyl)-1,2,3,4-tetrahydropyrido[2,3-b]pyrazin-7-yl]-pyridin-2-ylamine]	1000 to 10000	< 100	51 to 75	76 to 100			> 200 °C
O=C(c1ccc(-c2cnc3c(c2)N(Cc2cc(Cl)ccc2C(F)(F)F)CCN3)cc1)N1CCC(N2CCOCC2)CC1 [Example 287, (4-{1-[5-Chloro-2-(trifluoromethyl)benzyl]-1,2,3,4-tetrahydropyrido[2,3-b]pyrazin-7-yl}phenyl)-(4-morpholin-4-yl-piperidin-1-yl)methanone]	100 to 1000	< 100	0 to 25	26 to 50	0 to 25	0 to 25	
N#Cc1c(F)ccc(F)c1CN1CCNc2ncc(-c3ccc(N4CCOCC4)nc3)cc21 [Example 289, 3,6-Difluoro-2-[7-(6-morpholin-4-yl-pyridin-3-yl)-3,4-dihydro-2H-pyrido[2,3-b]pyrazin-1-ylmethyl]benzonitrile]	100 to 1000	< 100					188 to 190 °C
O=C1CNc2ncc(I)cc2N1Cc1ccc(C(F)(F)F)o1 [Example 290, 7-Iodo-1-[5-(trifluoromethyl)furan-2-ylmethyl]-3,4-dihydro-1H-pyrido[2,3-b]pyrazin-2-one]	> 100000	10000 to 100000					189 to 191 °C
FC(F)(F)c1ccc(CN2CCNc3ncc(I)cc32)o1 [Example 291, 7-Iodo-1-[5-(trifluoromethyl)furan-2-ylmethyl]-1,2,3,4-tetrahydropyrido[2,3-b]pyrazine]	> 100000	10000 to 100000					153 to 154 °C
O=C1CNc2ncc(I)cc2N1Cc1ccccc1OC(F)(F)F [Example 294, 7-Iodo-1-[2-(trifluoromethoxy)benzyl]-3,4-dihydro-1H-pyrido[2,3-b]pyrazin-2-one]	10000 to 100000	10000 to 100000					235 °C
CCOC(=O)c1ccc(-c2cnc3c(c2)N(Cc2ccccc2OC(F)(F)F)CCN3)cc1 [Example 297, 4-{1-[2-(Trifluoromethoxy)benzyl]-1,2,3,4-tetrahydropyrido[2,3-b]pyrazin-7-yl}benzoic acid ethyl ester]	> 100000	1000 to 10000					153 °C
O=C(O)c1ccc(-c2cnc3c(c2)N(Cc2ccccc2OC(F)(F)F)CCN3)cc1 [Example 298, 4-{1-[2-(Trifluoromethoxy)benzyl]-1,2,3,4-tetrahydropyrido[2,3-b]pyrazin-7-yl}benzoic acid]	> 100000	1000 to 10000					250 °C
O=C1CNc2ncc(I)cc2N1Cc1cccnc1Cl [Example 299, 1-(2-Chloropyridin-3-ylmethyl)-7-iodo-3,4-dihydro-1H-pyrido[2,3-b]pyrazin-2-one]	> 100000	1000 to 10000					249 °C
CC(=O)Nc1ccc(-c2cnc3c(c2)N(Cc2cc(Cl)ccc2C(F)(F)F)CCN3)cc1 [Example 304, N-(4-{1-[5-Chloro-2-(trifluoromethyl)benzyl]-1,2,3,4-tetrahydropyrido[2,3-b]pyrazin-7-yl}phenyl)acetamide]	> 100000	1000 to 10000					244 °C
CN1CCN(c2ccc(-c3cnc4c(c3)N(Cc3c(F)ccc(F)c3Cl)CC(=O)N4)cn2)CC1 [Example 437, 1-(2-Chloro-3,6-difluorobenzyl)-7-[6-(4-methylpiperazin-1-yl)pyridin-3-yl]-1,4-dihydro-2H-pyrido[2,3-b]pyrazin-3-one]	1000 to 10000	100 to 1000					235 to 236 °C (dec.)
